{"source": "paper PMC10419174", "about": "“WR1065 conjugated to thiol-PEG polymers as novel anticancer prodrugs: broad spectrum efficacy, synergism, and drug resistance reversal” (Frontiers in Oncology, 2023)", "key": {"Ovary TOV21G cells": {"tested_on": "Ovary TOV21G cells", "assay": "cells", "conditions": "for Fold increase in efficacy: drug alone ÷ drug in 4SP65-DDP combination", "procedure": "(§1) The percentage of growth inhibition was calculated as follows: […]"}, "Prostate PC3 cells": {"tested_on": "Prostate PC3 cells", "assay": "cells", "procedure": "as §1"}, "NCI-H1975 NSCLC cells": {"tested_on": "NCI-H1975 NSCLC cells", "assay": "cells", "procedure": "as §1"}, "NCI-H460 NSCLC cells": {"tested_on": "NCI-H460 NSCLC cells", "conditions": "for Fold increase in efficacy: drug alone ÷ drug in 4SP65-DDP combination", "description": "To test anticancer effectiveness of individual drugs or drug combinations, the CyQUANT®-NF proliferation assay was used with a plate reader (i) to generate standard curves for cell numbers for each cell line, (ii) to measure the starting cell numbers at initiation of drug treatment, and (iii) to obtain fluorescence readings from cells in 96-well plates for comparisons to a standard curve for the relevant cancer cell line and quantifying cell viability after drug treatments. […] Trypan blue exclusion was used to estimate cell numbers in a few pilot experiments and thereafter was applied to confirm very low viable cell numbers and cell death.\nA series of experiments was conducted to determine the relative efficacy of 4SP65, 1LP65, and amifostine as single agents in the same human cancer cell lines.\nFive metrics were calculated and used to characterize the shape of the dose-response curve following exposure to a single test agent. Using cell numbers based on fluorescence measurements and standard curves, the percentage growth was calculated at each drug concentration level. The percentage of growth inhibition was calculated as follows:\nwhere Tz = cell numbers or fluorescence counts at time xero, C = vehicle-exposed control cell numbers at the end of the assessment time period, and Ti = test agent-exposed cell numbers or fluorescence counts at each drug concentration. […] The LC50/99 was calculated using Equation 2 = -50 and Eq. 2 = -99, respectively. […] For NHMECs, the relationships between drug exposure levels and fluorescence units were used to define dose-response metrics. The selectivity index values for individual drugs were calculated using IC50 levels in NHMECs divided by the IC50 value for each cancer cell line. Statistical comparisons of differences in individual dose-response metrics between drug treatments and cell lines were conducted using Student’s t-test, with P-values <0.05 considered significant.\nRelative cell growth inhibition values for differing levels of each drug alone and in combination were input into SynergyFinder to generate dose-response curves for each drug alone and to produce a dose-response matrix. The dose-response matrix data then were used in generating a two-dimension heatmap and three-dimension volcano plot to visualize the distribution of areas of differing degrees of synergism and to calculate average and maximum synergy scores in selected human cancer cell lines. The expected drug combination responses were calculated using both the Highest Single Agent (HSA) model and the Zero interaction potency (ZIP) model."}, "[1]": {"tested_on": "Mammary gland HCC38 cells", "assay": "CyQUANT-NF proliferation assay, 48-h drug treatment", "type": "cell-based", "conditions": "for Relative cell inhibition: 99% confluent cells, 48 h"}, "[2]": {"tested_on": "Strain-2 and Strain-3 NHMECs", "type": "cell-based", "conditions": "48 h; for IC50: read-out: IC50", "excerpt": "Normal human mammary epithelial cell (NHMEC) strains used to assess potential cytotoxicity of 4SP65 and 1LP65 were established from reduction mammoplasty tissue from a healthy donor (M99005 or ‘Strain-1’) ([53]) or purchased from ATCC (Manassas, VA, USA; batch#70043304 or ‘Strain-2’) or Cell Applications (San Diego, CA, USA; lot#1669 or ‘Strain-3’). Human cancer cell lines including HCC38, MDA-MB-231, A549, National Cancer Institute (NCI)-H460, NCI-H1437, NCI-H1975, DU145, LNCaP, PC3, PANC1, SKOV3, and HL60, which were free of Mycoplasma, were purchased from ATCC. HMESO1, PPMMill, and TOV21G cells, obtained from Dr. Brian Cunniff, were verified to be Mycoplasma negative using the LookOut® Mycoplasma PCR Detection Kit (Sigma-Aldrich) and to match previously annotated DNA fingerprints by the Vermont Integrative Genomics Resource DNA Analysis Facility.\nTo assess the effects of 4SP65 or 1LP65 on the growth of normal epithelium, experiments were performed using NHMEC strains from differing donors ([53]). Strain-1 NHMECs were plated at 5,000 cells/well in 24-well plates and allowed to reach 50% confluence before treatment with 0-150 µM 4SP65 for 48 h. Cell viability was determined using a hemocytometer and trypan blue exclusion assay. Two other NHMEC strains, exposed to 0-150 µM 4SP65 or 0-500 µM 1LP65 for 48 h, were handled in the same fashion except that viability of cells in 96-well plates was determined using CyQUANT dye. Due to the short life span of these NHMECs, standard curves were not generated and fluorescence readings were used as a surrogate marker of cell number ([54])."}, "[3]": {"conditions": "drug alone, 48 h, 4SP65/cisplatin study"}, "[4]": {"conditions": "48-h treatment, amifostine ND = not definable up to 500 µM"}, "[5]": {"conditions": "drug alone, 48 h, 4SP65/cisplatin study, ND = not definable, highest concentration in parentheses"}}, "note": "“And” between values parts separate entries of the source, which are not always exact repeats. Equal entries are not always repeated. Where two headings read alike, the source gives them in different places. Marks after values point to notes of the source that are not given here.", "data": [{"substance": "4-star-PEG-S-S-WR1065 [4SP65]", "values": [{"measurement": "Fold increase in efficacy", "setting": "Ovary TOV21G cells; at LC99", "value": "3.2*** fold"}, {"measurement": "Fold increase in efficacy", "setting": "Ovary TOV21G cells; at TGI", "value": "2.4* fold"}, {"measurement": "GI50", "setting": "Ovary TOV21G cells; [3]", "value": "0.93 ± 0.37", "unit": "µM"}, {"measurement": "IC50", "setting": "Ovary TOV21G cells; [3]", "value": "1.2 ± 0.3", "unit": "µM"}, {"measurement": "LC99", "setting": "Ovary TOV21G cells; [3]", "value": "3.0 µM and 3.0 ± 0.2 µM"}, {"measurement": "TGI", "setting": "Ovary TOV21G cells; [3]", "value": "2.0 ± 0.4", "unit": "µM"}, {"measurement": "CC50", "setting": "Prostate PC3 cells", "value": "4.5 ± 0.6", "unit": "µM"}, {"measurement": "GI50", "setting": "Prostate PC3 cells; [4]", "value": "0.7 ± 0.2", "unit": "µM"}, {"measurement": "IC50", "setting": "Prostate PC3 cells; [4]", "value": "2 ± 0.3", "unit": "µM"}, {"measurement": "LC99", "setting": "Prostate PC3 cells; [4]", "value": "5.8 ± 0.8", "unit": "µM"}, {"measurement": "TGI", "setting": "Prostate PC3 cells; [4]", "value": "2.1 ± 0.5 µM and 2.1 µM"}, {"measurement": "Dose reduction value 1LP65 ÷ 4SP65", "setting": "Prostate PC3 cells; at GI50", "value": 25, "unit": "fold"}, {"measurement": "Dose reduction value AMF ÷ 4SP65", "setting": "Prostate PC3 cells; at GI50", "value": 58, "unit": "fold"}, {"measurement": "Dose reduction value 1LP65 ÷ 4SP65", "setting": "Prostate PC3 cells; at IC50", "value": 19, "unit": "fold"}, {"measurement": "Dose reduction value AMF ÷ 4SP65", "setting": "Prostate PC3 cells; at IC50", "value": 52, "unit": "fold"}, {"measurement": "Dose reduction value 1LP65 ÷ 4SP65", "setting": "Prostate PC3 cells; at LC50", "value": 13, "unit": "fold"}, {"measurement": "Dose reduction value 1LP65 ÷ 4SP65", "setting": "Prostate PC3 cells; at LC99", "value": 15, "unit": "fold"}, {"measurement": "Dose reduction value 1LP65 ÷ 4SP65", "setting": "Prostate PC3 cells; at TGI", "value": 19, "unit": "fold"}, {"measurement": "Dose reduction value AMF ÷ 4SP65", "setting": "Prostate PC3 cells; at TGI", "value": 143, "unit": "fold"}, {"measurement": "CC50", "setting": "NCI-H1975 NSCLC cells", "value": "7.6 ± 1.3", "unit": "µM"}, {"measurement": "GI50", "setting": "NCI-H1975 NSCLC cells; [4]", "value": "3.1 ± 0.6", "unit": "µM"}, {"measurement": "IC50", "setting": "NCI-H1975 NSCLC cells; [4]", "value": "4.2 ± 1", "unit": "µM"}, {"measurement": "LC99", "setting": "NCI-H1975 NSCLC cells; [4]", "value": "9.3 ± 1.1", "unit": "µM"}, {"measurement": "TGI", "setting": "NCI-H1975 NSCLC cells; [4]", "value": "5.2 ± 0.9", "unit": "µM"}, {"measurement": "Dose reduction value 1LP65 ÷ 4SP65", "setting": "NCI-H1975 NSCLC cells; at GI50", "value": 13, "unit": "fold"}, {"measurement": "Dose reduction value AMF ÷ 4SP65", "setting": "NCI-H1975 NSCLC cells; at GI50", "value": 42, "unit": "fold"}, {"measurement": "Dose reduction value 1LP65 ÷ 4SP65", "setting": "NCI-H1975 NSCLC cells; at IC50", "value": 13, "unit": "fold"}, {"measurement": "Dose reduction value 1LP65 ÷ 4SP65", "setting": "NCI-H1975 NSCLC cells; at LC50", "value": 8.3, "unit": "fold"}, {"measurement": "Dose reduction value 1LP65 ÷ 4SP65", "setting": "NCI-H1975 NSCLC cells; at LC99", "value": 9.3, "unit": "fold"}, {"measurement": "Dose reduction value 1LP65 ÷ 4SP65", "setting": "NCI-H1975 NSCLC cells; at TGI", "value": 10, "unit": "fold"}, {"measurement": "GI50", "setting": "NCI-H460 NSCLC cells; [4]", "value": "9.4 ± 1.5", "unit": "µM"}, {"measurement": "IC50", "setting": "NCI-H460 NSCLC cells; [4]", "value": "10.7 ± 1.3", "unit": "µM"}, {"measurement": "LC99", "setting": "NCI-H460 NSCLC cells; [4]", "value": "17.7 ± 0.8", "unit": "µM"}, {"measurement": "TGI", "setting": "NCI-H460 NSCLC cells; [4]", "value": "14.1 ± 1.5 µM and 14.1 µM"}, {"measurement": "Dose reduction value 1LP65 ÷ 4SP65", "setting": "NCI-H460 NSCLC cells; at GI50", "value": 8.3, "unit": "fold"}, {"measurement": "Dose reduction value 1LP65 ÷ 4SP65", "setting": "NCI-H460 NSCLC cells; at IC50", "value": 8.4, "unit": "fold"}, {"measurement": "Dose reduction value 1LP65 ÷ 4SP65", "setting": "NCI-H460 NSCLC cells; at LC50", "value": 9.5, "unit": "fold"}, {"measurement": "Dose reduction value 1LP65 ÷ 4SP65", "setting": "NCI-H460 NSCLC cells; at LC99", "value": 10, "unit": "fold"}, {"measurement": "Dose reduction value 1LP65 ÷ 4SP65", "setting": "NCI-H460 NSCLC cells; at TGI", "value": 8.8, "unit": "fold"}, {"measurement": "Fold increase in efficacy", "setting": "NCI-H460 NSCLC cells; at GI50", "value": 36, "unit": "fold"}, {"measurement": "Fold increase in efficacy", "setting": "NCI-H460 NSCLC cells; at IC50", "value": "20** fold"}, {"measurement": "Fold increase in efficacy", "setting": "NCI-H460 NSCLC cells; at LC50, GoE = gain of effect", "value": "5.3^c fold"}, {"measurement": "Fold increase in efficacy", "setting": "NCI-H460 NSCLC cells; at LC99, GoE = gain of effect", "value": "4.3^c fold"}, {"measurement": "Fold increase in efficacy", "setting": "NCI-H460 NSCLC cells; at TGI, GoE = gain of effect", "value": "7.4^c fold"}, {"measurement": "GI50", "setting": "NCI-H460 NSCLC cells; [3]", "value": "12.3 ± 1.1", "unit": "µM"}, {"measurement": "IC50", "setting": "NCI-H460 NSCLC cells; [3]", "value": "13.3 ± 1", "unit": "µM"}, {"measurement": "LC99", "setting": "NCI-H460 NSCLC cells; [5]", "value": "18.2 ± 0.4", "unit": "µM"}, {"measurement": "TGI", "setting": "NCI-H460 NSCLC cells; [5]", "value": "16.9 ± 0.6", "unit": "µM"}, {"measurement": "CC50", "setting": "[1]", "value": "6.8 ± 0.9", "unit": "µM"}, {"measurement": "GI50", "setting": "[1]; [4]", "value": "1.3 ± 0.4", "unit": "µM"}, {"measurement": "IC50", "setting": "[1]; [4]", "value": "4.1 ± 0.2", "unit": "µM"}, {"measurement": "LC99", "setting": "[1]; [4]", "value": "11.9 ± 1.6", "unit": "µM"}, {"measurement": "TGI", "setting": "[1]; [4]", "value": "3.7 ± 0.3", "unit": "µM"}, {"measurement": "Relative cell inhibition", "setting": "[1]; 10 µM 4SP65 alone", "value": "3.4 ± 10.9", "unit": "%"}, {"measurement": "Relative cell inhibition", "setting": "[1]; 10 µM 4SP65 with 10 µM insulin", "value": "42 ± 6.5", "unit": "%"}, {"measurement": "selectivity index", "setting": "[1]; IC50 in NHMECs ÷ IC50 in HCC38, average", "value": "> 31"}, {"measurement": "Dose reduction value 1LP65 ÷ 4SP65", "setting": "[1]; at GI50", "value": 28, "unit": "fold"}, {"measurement": "Dose reduction value AMF ÷ 4SP65", "setting": "[1]; at GI50", "value": 60, "unit": "fold"}, {"measurement": "Dose reduction value 1LP65 ÷ 4SP65", "setting": "[1]; at IC50", "value": 12, "unit": "fold"}, {"measurement": "Dose reduction value AMF ÷ 4SP65", "setting": "[1]; at IC50", "value": 67, "unit": "fold"}, {"measurement": "Dose reduction value 1LP65 ÷ 4SP65", "setting": "[1]; at LC50", "value": 8.8, "unit": "fold"}, {"measurement": "Dose reduction value 1LP65 ÷ 4SP65", "setting": "[1]; at LC99", "value": 7.1, "unit": "fold"}, {"measurement": "Dose reduction value 1LP65 ÷ 4SP65", "setting": "[1]; at TGI", "value": 13, "unit": "fold"}, {"measurement": "Dose reduction value AMF ÷ 4SP65", "setting": "[1]; at TGI", "value": 69, "unit": "fold"}, {"measurement": "fold increase in drug efficacy with insulin", "setting": "[1]; growth-arrested cells", "value": 12.4, "unit": "fold"}, {"measurement": "IC50", "setting": "[2]; Strain-2 NHMECs", "value": "> 150", "unit": "µM"}, {"measurement": "growth enhancement", "setting": "[2]; Strain-2 and Strain-3 cells, 3 µM", "value": "162% ± 7%"}, {"measurement": "growth relative to control cells", "setting": "[2]; Strain-2 and Strain-3 cells, 9 µM", "value": "78% ± 12%"}, {"measurement": "growth relative to control cells", "setting": "[2]; Strain-2 and Strain-3 cells, 30 µM", "value": "52% ± 8%"}, {"measurement": "growth relative to control cells", "setting": "[2]; Strain-2 and Strain-3 cells, 90 µM", "value": "21% ± 4%"}, {"measurement": "growth relative to control cells", "setting": "[2]; Strain-2 and Strain-3 cells, 150 µM", "value": "8.7% ± 2%"}, {"measurement": "IC50", "setting": "[2]; Strain-3 NHMECs", "value": "76 ± 14", "unit": "µM"}]}]}
